According to patent US20110245323A1, “RIG-Like Helicase Innate Immunity Inhibits VEGF-Induced Tissue Responses” (Yale University, priority 2006, published 2011):

What was measured:
[1] = test system: CC10-rtTA-VEGF165 transgenic mice; assay: VEGF-induced angiogenesis, anti-CD31 immunohistochemistry and vessel area density; assay type: in vivo, mouse; details: for Vascularity (%): VEGF-induced tissue responses, TLR agonist administration, PBS control 43
Procedure: (§1) The CC10-rtTA-VEGF165 transgenic mice used in this study were generated and used as described previously (Lee et al., 2004, Nature Medicine 10:1095-103), which reference is incorporated herein in its entirety. These animals were housed under barrier conditions in the animal facility at Yale University School of Medicine. In these experiments 6-8 week old transgenic (Tg+) animals and their transgene negative littermate controls (Tg−) were randomized to receive water with doxycycline (dox) (0.5 mg/ml) or normal water. Two weeks later they were sacrificed and the VEGF-induced phenotype was evaluated as described below (Lee et al., 2004, Nature Medicine 10:1095-103).
(§2) To define the effects of these agents on the tissue responses induced by VEGF, two experimental procedures were used. In the first, a pretreatment protocol was used. In these experiments the noted innate immunity agonist ([…] unless otherwise indicated) or its vehicle control (PBS) were administered intranasally and aspirated into the lungs of randomized Tg+ and Tg− mice starting one day before the Dox water treatment. The doses were administered to the mice every other day during the 2 week doxyxycline (dox) treatment interval.
(§3) To determine if the innate immunity agonists altered established VEGF-induced tissue responses, a “post treatment” protocol was used in selected experiments. In these experiments the innate immunity agonist was administered 2 days or 14 days after the doxycycline and VEGF-induced responses were evaluated 2 weeks later.
(§4) To define the effects of Poly(I:C) a number of protocols were employed. In most experiments, a pretreatment-2 week protocol was employed. In these experiments, WT and Tg+ mice were treated with Poly(I:C) (30 μg in 50 lambda unless otherwise indicated; Amersham Biosciences, N.J.) or vehicle control via nasal aspiration and transgene activation was accomplished via the administration of dox (0.5 mg/ml) in the animal's drinking water 24 hours later. The Poly(I:C) was administered every other day and the dox was administered continuously for up to 2 weeks.
In selected experiments a pretreatment protocol and shorter treatment interval was employed. In these experiments, WT and Tg+ mice were treated with Poly(I:C) (30 μg/mouse/dose in 50 μl) or vehicle control via nasal aspiration and transgene activation was accomplished with dox 24 hours later. The animals were then randomized to not receive or receive one additional dose of Poly(I:C) 24 hours later and dox was administered continuously during this 2 week interval.
(§5) Lastly, in selected experiments post-transgene activation protocols were employed. In these experiments dox was administered for 2 days or 2 weeks. The Poly(I:C) was then administered via intranasal aspiration every other day for 2 weeks as disclosed elsewhere herein. In selected pre-treatment and post-transgene activation experiments, unmethylated CpG (CpG-B) (Keck Center, Yale University) was also employed at similar doses. At the end of these intervals, assessments of angiogenesis (anti-CD31 immunohistochemistry), vascular permeability (Evan's blue dye extravasation, wet to dry lung weight measurements, BAL protein concentration), BAL and tissue inflammatory cell infiltration and mucus metaplasia (periodic acid-Schiff (PAS) staining, MUC5AC immunoblotting) were undertaken. In all cases experiments were designed to compare Tg− and Tg+ mice on normal water and Tg− and Tg+ mice on dox water.

[2] = test system: CC10-rtTA-VEGF165 transgenic mice; assay: VEGF-induced pulmonary hemorrhage in BAL fluids; assay type: in vivo, mouse; details: Tg+ mice, pretreatment, vs vehicle
Procedure: as §1, with “10:1095-103). […]” for “10:1095-103).”
Mice were sacrificed using intraperitoneal ketamine/xylazine injection and the trachea was cannulated and perfused with two 0.9 nil aliquots of cold saline. The cellular contents and BAL fluid were separated by centrifugation, the BAL cell number was quantitated and cell differential was assessed. […]
The lungs were removed en bloc as described elsewhere herein, inflated at 25 cm pressure with PBS containing 0.5% low melting point agarose gel, fixed in Streck solution (Streck Laboratories, La Vista, Nebr.), embedded in paraffin, sectioned and stained. […] Pulmonary hemorrhage was evaluated by quantitating BAL red blood cell number with a Coulter counter (Beckman Coulter).

[3] = test system: CC10-rtTA-VEGF165 transgenic mice; assay: BAL inflammatory cell recovery, VEGF-induced inflammation; assay type: in vivo, mouse; details: for Total cells (×10^4): VEGF-induced tissue responses, TLR agonist administration, PBS control 50
Procedure: as §1, §2, §3, §4, §5
Mice were sacrificed using intraperitoneal ketamine/xylazine injection and the trachea was cannulated and perfused with two 0.9 nil aliquots of cold saline. The cellular contents and BAL fluid were separated by centrifugation, the BAL cell number was quantitated and cell differential was assessed. The BAL fluid was stored in aliquots at −80° C.

[4] = test system: CC10-rtTA-VEGF165 transgenic mice; assay: VEGF-induced mucus metaplasia (PAS staining, BAL MUC5AC); assay type: in vivo, mouse; details: Tg+ mice, pretreatment, vs vehicle
Procedure: as §4, §5
The lungs were removed en bloc as described elsewhere herein, inflated at 25 cm pressure with PBS containing 0.5% low melting point agarose gel, fixed in Streck solution (Streck Laboratories, La Vista, Nebr.), embedded in paraffin, sectioned and stained. Hematoxylin and eosin and PAS stains were performed in the Research Histology Laboratory of the Department of Pathology at the Yale University School of Medicine. Pulmonary hemorrhage was evaluated by quantitating BAL red blood cell number with a Coulter counter (Beckman Coulter).
The levels of MUC5AC, the major airway mucin in BAL fluids, were assessed as previously described (Lee et al., 2008, Am J Respir Cell Mol Biol 39:739-746). In these evaluations, 0.1 ml of BAL fluid was slot blotted onto nitrocellulose membranes using a Minifold II slot blot apparatus (Schleicher & Schuell). After air-drying, the membrane was blocked with 5% skim milk, washed three times and incubated overnight at 4° C. with a monoclonal antibody against Mucin-5AC (45M1; NeoMarkers, Union City, Calif.). After washing, the membranes were incubated for 1 hour at room temperature with horseradish peroxidase-conjugated anti-mouse immunoglobulin (Ig)-G (Pierce). Immunoreactive mucins were detected using a chemiluminescent procedure (ECL Plus Western blotting detection system, Amersham Biosciences) according to instructions from the manufacturer.

[5] = test system: human patients; details: cited from earlier work

Molecule	VEGF-induced angiogenesis (vascular density, appearance, sprouting) ([1]; Tg+ mice, pretreatment starting 1 day before dox, vs vehicle)	Vascularity (%) [1] [%]	VEGF-induced bleeding / hemorrhage in BAL fluids [2]	total recovery of inflammatory cells during BAL / VEGF-induced inflammation ([3]; Tg+ mice, pretreatment, vs vehicle)	Total cells (×10^4) [3]	VEGF-induced mucus metaplasia (PAS stains, BAL MUC5AC accumulation) [4]	toxicity, lower dose ([5]; 10 to 50 mcg/kg)	toxicity and efficacy in human patients, high doses ([5]; 200-300 mcg/kg IV)
CCNCc1nc2c(N)nc3ccccc3c2n1CC(C)(C)O [Gardiquimod]	decreased	32.4	decreased	decreased	29 ×10^4	decreased		
Lipopolysaccharide [LPS]		32.2			156 ×10^4			
poly-ICLC							little or no toxicity	toxic and largely ineffectual
